EC50 data for 25 molecules are collected here from US20220226337A1 (Gilead Sciences, Inc., priority 2018, published 2022).

The structures appear in SMILES notation.

This assay addresses T1, α4β7 integrin interaction with MadCAM-1 (RPMI8866 cells) (Homo sapiens, UniProt P13612+P26010).
T1 construct: α4β7 integrin expressing cells; endogenous in cells; host or cells: RPMI8866 cells
T1 sequence (P13612 34-1032): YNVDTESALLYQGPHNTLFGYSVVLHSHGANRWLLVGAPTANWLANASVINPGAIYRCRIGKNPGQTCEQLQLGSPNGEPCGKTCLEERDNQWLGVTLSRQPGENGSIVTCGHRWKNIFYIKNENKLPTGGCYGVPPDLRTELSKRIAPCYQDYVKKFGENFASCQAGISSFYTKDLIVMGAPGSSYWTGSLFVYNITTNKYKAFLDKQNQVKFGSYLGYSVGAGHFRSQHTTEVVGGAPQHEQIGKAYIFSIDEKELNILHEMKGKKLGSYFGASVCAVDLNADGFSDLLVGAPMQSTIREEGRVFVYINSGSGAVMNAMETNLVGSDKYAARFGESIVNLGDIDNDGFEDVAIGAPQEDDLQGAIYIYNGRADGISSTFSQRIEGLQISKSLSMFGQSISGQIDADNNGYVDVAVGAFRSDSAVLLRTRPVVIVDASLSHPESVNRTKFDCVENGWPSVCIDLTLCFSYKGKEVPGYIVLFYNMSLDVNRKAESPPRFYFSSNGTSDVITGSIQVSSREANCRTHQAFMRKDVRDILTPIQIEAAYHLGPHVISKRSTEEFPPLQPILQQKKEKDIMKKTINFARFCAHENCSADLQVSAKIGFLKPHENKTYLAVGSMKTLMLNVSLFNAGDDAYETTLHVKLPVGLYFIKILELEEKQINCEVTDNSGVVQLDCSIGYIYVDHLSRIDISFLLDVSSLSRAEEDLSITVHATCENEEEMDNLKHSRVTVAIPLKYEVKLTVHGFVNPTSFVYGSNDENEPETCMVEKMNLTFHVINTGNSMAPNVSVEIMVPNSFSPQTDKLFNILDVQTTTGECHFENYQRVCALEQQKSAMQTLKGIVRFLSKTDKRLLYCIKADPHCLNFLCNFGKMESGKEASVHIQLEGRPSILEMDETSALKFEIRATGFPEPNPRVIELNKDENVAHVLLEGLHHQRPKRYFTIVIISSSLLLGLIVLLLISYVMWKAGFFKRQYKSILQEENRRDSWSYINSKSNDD
T1 sequence (P26010 20-798): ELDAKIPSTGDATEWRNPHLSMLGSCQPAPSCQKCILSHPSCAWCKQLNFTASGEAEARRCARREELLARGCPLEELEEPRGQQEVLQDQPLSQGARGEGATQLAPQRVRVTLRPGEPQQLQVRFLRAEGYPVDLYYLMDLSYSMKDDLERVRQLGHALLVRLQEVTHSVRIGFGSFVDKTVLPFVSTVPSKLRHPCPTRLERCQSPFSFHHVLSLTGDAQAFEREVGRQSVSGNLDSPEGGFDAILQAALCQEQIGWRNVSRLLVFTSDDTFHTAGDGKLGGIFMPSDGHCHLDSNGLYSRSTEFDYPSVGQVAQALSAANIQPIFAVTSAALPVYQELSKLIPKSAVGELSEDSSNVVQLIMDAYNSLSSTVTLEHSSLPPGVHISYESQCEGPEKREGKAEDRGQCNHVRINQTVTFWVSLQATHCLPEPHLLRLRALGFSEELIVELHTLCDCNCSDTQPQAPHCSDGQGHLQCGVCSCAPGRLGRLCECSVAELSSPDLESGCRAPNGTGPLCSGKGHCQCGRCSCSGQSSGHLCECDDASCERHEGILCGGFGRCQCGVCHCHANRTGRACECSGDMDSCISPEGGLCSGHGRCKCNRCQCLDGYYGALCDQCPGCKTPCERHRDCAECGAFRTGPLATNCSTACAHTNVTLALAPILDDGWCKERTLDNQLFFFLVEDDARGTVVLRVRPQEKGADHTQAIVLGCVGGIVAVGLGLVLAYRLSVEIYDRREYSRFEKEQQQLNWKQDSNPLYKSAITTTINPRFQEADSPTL
The assay is described as follows: α4β7 Integrin Cell Capture Assay. The conditions noted are these: capture of α4β7 integrin expressing RPMI8866 cells on recombinant MadCAM-1 extracellular domain-coated plate; 0.5 mM MnCl2. In kind it is cell-based. The method in brief:
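RPMI8866 cells (0.5×10^6 cells/mL in DMEM + 0.5% FBS + 0.5 mM MnCl2) preincubated with compound 1 h at 37 °C, then allowed to adhere 30 min at 37 °C to plates coated with MAdCAM-1 extracellular domain (1.0 μg/mL). Bound cells fixed with 2% glutaraldehyde, Hoechst-stained, imaged and counted; EC50 from cell count versus concentration.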
`Cc1cc(C)n(C)c(=O)c1-c1ccc(C[C@H](NC(=O)c2c(F)cc(N[C@H](C)C(F)(F)F)cc2F)C(=O)O)c2c1COC2` [Example 30, (S)-2-(2,6-difluoro-4-(((R)-1,1,1-trifluoropropan-2-yl)amino)benzamido)-3-(7-(1,4,6-trimethyl-2-oxo-1,2-dihydropyridin-3-yl)-1,3-dihydroisobenzofuran-4-yl)propanoic acid]: the EC50 worked out at 1.74 nM.
Turning to `O=C(N[C@@H](Cc1ccc(-c2c(Cl)cc(F)cc2Cl)c2c1CCC2)C(=O)O)c1c(F)cccc1F` [Example 104, (S)-3-(7-(2,6-dichloro-4-fluorophenyl)-2,3-dihydro-1H-inden-4-yl)-2-(2,6-difluorobenzamido)propanoic acid], the EC50 turned out to be 88.7 nM.
Under `Cc1c(-c2ccc(C[C@H](NC(=O)c3c(F)cccc3F)C(=O)O)c3c2OCCC3)c(=O)n(C)c2ccccc12` [Example 57, (S)-2-(2,6-difluorobenzamido)-3-(8-(1,4-dimethyl-2-oxo-1,2-dihydroquinolin-3-yl)chroman-5-yl)propanoic acid] stands 4.19 nM.
For `O=C(N[C@@H](Cc1ccc(-c2c(Cl)cc(F)cc2Cl)c2c1CCCO2)C(=O)O)c1c(Cl)cccc1Cl` [Example 75, (S)-3-(8-(2,6-dichloro-4-fluorophenyl)chroman-5-yl)-2-(2,6-dichlorobenzamido)propanoic acid], the EC50 amounted to 67.7 nM.
The value for `Cc1nc(-c2ccc(C[C@H](NC(=O)c3c(F)cc(N4CCO[C@@H](C)C4)cc3F)C(=O)O)c3c2OCCC3)c(=O)n(C)c1C` [Example 157] was 1.82 nM; that for `Cc1cccc(F)c1C(=O)N[C@@H](Cc1ccc(-c2nc(C)c(C)n(C)c2=O)c2c1OCCO2)C(=O)O` [Example 181] was 4.34 nM.
Under `Cc1nc(-c2ccc(C[C@H](NC(=O)c3c(F)cc(N4CCOC[C@@H]4C(F)(F)F)cc3F)C(=O)O)c3c2CC(O)C3)c(=O)n(C)c1C` (stereo partly shown) [Example 197] stands 0.308 nM; under `Cc1cc(N2CCC2)c(-c2ccc(C[C@H](NC(=O)c3c(F)cc(N4CCOC[C@@H]4C(F)(F)F)cc3F)C(=O)O)c3c2OCCC3)c(=O)n1C` (atropisomer, axis not shown) [Example 152], 0.791 nM.
Take `Cc1cc(N2CCOC[C@@H]2C(F)(F)F)cc(F)c1C(=O)N[C@@H](Cc1ccc(-c2c(C(F)(F)F)cc(C)n(C)c2=O)c2c1CCC2)C(=O)O` [Example 200]: the EC50 came to 0.083 nM.
On to `O=C(N[C@@H](Cc1ccc(-c2cc(F)c(F)c3c2OCCC3)c2c1CCCO2)C(=O)O)c1c(Cl)cccc1Cl` [Example 90, (S)-2-(2,6-dichlorobenzamido)-3-(5′,6′-difluoro-[8,8′-bichroman]-5-yl)propanoic acid], for which the EC50 came to 16 nM.
The value for `Cn1c(=O)c(-c2ccc(C[C@H](NC(=O)c3c(F)cc(N4CCOC[C@@H]4C(F)(F)F)cc3F)C(=O)O)c3c2COC3)cc2cnccc21` [Example 190] was 0.338 nM.
For the molecule `CCOCc1cc(OC)c(-c2ccc(C[C@H](NC(=O)c3c(F)cccc3F)C(=O)O)c3c2OCCC3)c(OC)c1` [Example 71, (S)-2-(2,6-difluorobenzamido)-3-(8-(4-(ethoxymethyl)-2,6-dimethoxyphenyl)chroman-5-yl)propanoic acid], the EC50 came out at 9.18 nM.
Under `O=C1CCc2c(C[C@H](NC(=O)c3c(F)cccc3F)C(=O)O)ccc(-c3c(Cl)cc(F)cc3Cl)c2N1` [Example 103, (S)-3-(8-(2,6-dichloro-4-fluorophenyl)-2-oxo-1,2,3,4-tetrahydroquinolin-5-yl)-2-(2,6-difluorobenzamido)propanoic acid] stands 96 nM.
As to `Cc1c(-c2ccc(C[C@H](NC(=O)c3c(F)cc(N4CCOC[C@@H]4C(F)(F)F)cc3F)C(=O)O)c3c2OCCC3)c(=O)n(C)c2ccc(F)cc12` [Example 34, (S)-2-(2,6-difluoro-4-((R)-3-(trifluoromethyl)morpholino)benzamido)-3-(8-(6-fluoro-1,4-dimethyl-2-oxo-1,2-dihydroquinolin-3-yl)chroman-5-yl)propanoic acid], the EC50 stood at 0.236 nM.
Turning to `C[C@@H](Nc1cc(F)c(C(=O)N[C@@H](Cc2ccc(-c3ncccc3C(F)(F)F)c3c2CCCO3)C(=O)O)c(F)c1)C(F)(F)F` [Example 89, (S)-2-(2,6-difluoro-4-(((R)-1,1,1-trifluoropropan-2-yl)amino)benzamido)-3-(8-(3-(trifluoromethyl)pyridin-2-yl)chroman-5-yl)propanoic acid], the EC50 is 8.47 nM.
Take `N#Cc1ccc(-c2ccc(C[C@H](NC(=O)c3c(F)cccc3F)C(=O)O)c3c2OCCC3)c(Cl)c1` [Example 72, (S)-3-(8-(2-chloro-4-cyanophenyl)chroman-5-yl)-2-(2,6-difluorobenzamido)propanoic acid]: the EC50 amounted to 53.3 nM.
For the molecule `Cc1nc(-c2ccc(C[C@H](NC(=O)c3c(F)cc(N4CCC(F)(F)C[C@@H]4C(F)(F)F)cc3F)C(=O)O)c3c2OCCC3)c(=O)n(C)c1C` [Example 144], the EC50 worked out at 0.552 nM.
As for `Cc1cc(C)n(C)c(=O)c1-c1ccc(C[C@H](NC(=O)c2c(F)cc(N3CCOC[C@@H]3C(F)(F)F)cc2Cl)C(=O)O)c2c1OCCC2` [Example 159], the concentration for a half-maximal effect (EC50) came to 0.226 nM.
Under `N#Cc1cc(Cl)c(-c2ccc(C[C@H](NC(=O)c3c(F)cc(N[C@H](c4ccccc4)C(F)(F)F)cc3F)C(=O)O)c3c2OCCC3)c(Cl)c1` [Example 87, (S)-3-(8-(2,6-dichloro-4-cyanophenyl)chroman-5-yl)-2-(2,6-difluoro-4-(((R)-2,2,2-trifluoro-1-phenylethyl)amino)benzamido)propanoic acid] stands 12.8 nM; under `Cc1cc(N2CCC2)c(-c2ccc(C[C@H](NC(=O)c3c(F)cc(N4CCOC[C@@H]4C(F)(F)F)cc3F)C(=O)O)c3c2OCCC3)c(=O)n1C` [Example 167], 0.521 nM; under `Cc1nc(-c2ccc(C[C@H](NC(=O)c3c(F)cc(N4CCOC[C@@H]4C(F)(F)F)cc3F)C(=O)O)c3c2C[C@H](O)C3)c(=O)n(C)c1C` [Example 191], 0.371 nM.
As to `Cn1c(=O)c(-c2ccc(C[C@H](NC(=O)c3c(F)cc(N4CCOC[C@@H]4C(F)(F)F)cc3F)C(=O)O)c3c2OCCC3)cc2ccccc21` [Example 32, (S)-2-(2,6-difluoro-4-((R)-3-(trifluoromethyl)morpholino)benzamido)-3-(8-(1-methyl-2-oxo-1,2-dihydroquinolin-3-yl)chroman-5-yl)propanoic acid], the concentration for a half-maximal effect (EC50) was 1.78 nM.
For the molecule `Cc1cn(C)c(=O)c(-c2ccc(C[C@H](NC(=O)c3c(F)cc(N4CCOC[C@@H]4C(F)(F)F)cc3F)C(=O)O)c3c2OCCC3)n1` [Example 168], the EC50 was 0.946 nM.
In the case of `Cc1cc(C)n(C)c(=O)c1-c1ccc(C[C@H](NC(=O)c2c(F)cc(N3CCOC[C@@H]3C(F)(F)F)cc2F)C(=O)O)c2c1COC2` [Example 27, (S)-2-(2,6-difluoro-4-((R)-3-(trifluoromethyl)morpholino)benzamido)-3-(7-(1,4,6-trimethyl-2-oxo-1,2-dihydropyridin-3-yl)-1,3-dihydroisobenzofuran-4-yl)propanoic acid], the EC50 came out at 0.822 nM.
For `Cn1c(=O)n(-c2ccc(C[C@H](NC(=O)c3c(F)cc(N4CCOC[C@@H]4C(F)(F)F)cc3F)C(=O)O)c3c2COC3)c(=O)c2ccncc21` [Example 182], the EC50 turned out to be 0.277 nM.

As usually defined, the EC50 is the midpoint of the concentration-response curve.
